Experimental data taken from publication PMC12006963, “Application of Deuterium in an M1 Positive Allosteric Modulator Back-Up Program: The Discovery of VU6045422” (ACS Chemical Neuroscience, 2025).

Key:
[1] = design: method as in PMID 39660766; conditions: rat hepatic microsomes; cited from earlier work
CYP 3A4 = CYP 3A4 (Homo sapiens, UniProt P08684); design: method as in PMID 39660766; conditions: in words; cited from earlier work
[2] = test system: bacterial mutagenicity (4-strain with and without S9); experiment: Bacterial mutagenicity mini-AMES assay; assay type: cell-based
[3] = GSH trapping in microsomes; assay type: in vitro ADME; conditions: rat, dog, cyno, and human microsomes
CYP 2D6 = CYP 2D6 (Homo sapiens, UniProt P10635); experiment: CYP isoform contribution to metabolism: 2D6; assay type: in vitro ADME
CYP 2D6, sequence (P10635 whole entry, canonical isoform): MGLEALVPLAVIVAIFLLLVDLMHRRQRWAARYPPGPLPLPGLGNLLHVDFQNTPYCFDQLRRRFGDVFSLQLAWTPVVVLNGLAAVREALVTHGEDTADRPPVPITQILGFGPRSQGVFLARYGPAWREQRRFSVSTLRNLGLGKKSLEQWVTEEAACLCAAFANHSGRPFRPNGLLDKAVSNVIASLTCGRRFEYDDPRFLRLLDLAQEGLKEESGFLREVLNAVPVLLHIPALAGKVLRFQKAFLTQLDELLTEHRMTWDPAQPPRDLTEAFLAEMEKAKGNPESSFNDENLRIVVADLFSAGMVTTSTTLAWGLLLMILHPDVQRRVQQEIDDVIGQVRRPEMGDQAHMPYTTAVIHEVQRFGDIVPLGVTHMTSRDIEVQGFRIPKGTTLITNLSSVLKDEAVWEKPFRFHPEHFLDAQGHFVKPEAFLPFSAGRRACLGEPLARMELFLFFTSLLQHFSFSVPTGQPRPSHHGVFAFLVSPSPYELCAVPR

[4] = Rat oral dose escalation PK study; assay type: in vivo; conditions: for AUC(0-t) / Cmax: Sprague-Dawley, plasma, rat, oral
Procedure: page 9: Brain plasma concentration ratio (Kp) was calculated by dividing brain concentration by plasma concentration for each animal. Unbound brain to unbound plasma concentration ratio (Kp,uu) is calculated using the following formula: Kp,uu = (Brain ng/g x brain fu)/(plasma ng/ml x plasma fu). Pharmacokinetic profiles in rats following oral single escalating doses Single escalating oral dosing in Sprague-Dawley rats was performed at Frontage Laboratories according to their non-GLP Standard Operating Procedure and IACUC protocols. […] At different times, arterial blood was collected from a femoral artery catheter, and compound concentration was determined in plasma by LC-MS/MS following their non-GLP protocol. PK parameters were determined using Phoenix WinNonlin software (version 6.3). In-vitro determination of blood-brain barrier penetration potential Blood-brain barrier penetration was determined using MDR1-MDCK cell monolayers by Absorption Systems, following their protocol. In short, compounds were incubated at […] final concentration on one side of the cell monolayer for 2 hours. Compounds concentration on either side of the monolayer was determined by LC-MS/MS and apparent permeability and efflux ratio were determined as described in Wang, Q. et al.1 Behavioral Manifestations of Seizure Activity To evaluate induction of behavioral manifestation of seizure activity, C57Bl/6 mice received administration of vehicle or 100 mg/kg M1 PAM 5. Compound was formulated in 30% Captisol (pH 7.0) at a concentration of 10 mg/mL and injected i.p. at 10 ml/kg (n = 4). Animals were monitored continuously and scored for behavioral manifestations of seizure activity at 5, 15, 30 min, and 1 h. Behavioral manifestations of seizures were scored using a modified Racine scoring system. Briefly, a score of 0 represents no behavior alterations; score 1, immobility, mouth and facial movements, or facial clonus; score 2, head nodding, tail extension; score 3, forelimb clonus, repetitive movements; score 4, rearing and tonic clonic seizure; and score 5, continuous rearing and falling, severe generalized tonic clonic seizure. Novel Object Recognition Task S9

Adrenergic β2 = Adrenergic β2 (Homo sapiens, UniProt P07550); experiment: Eurofins radioligand binding
Androgen (Testosterone) = Androgen (Testosterone) (Homo sapiens, UniProt P10275); experiment: Eurofins radioligand binding
Androgen (Testosterone), sequence (P10275 whole entry): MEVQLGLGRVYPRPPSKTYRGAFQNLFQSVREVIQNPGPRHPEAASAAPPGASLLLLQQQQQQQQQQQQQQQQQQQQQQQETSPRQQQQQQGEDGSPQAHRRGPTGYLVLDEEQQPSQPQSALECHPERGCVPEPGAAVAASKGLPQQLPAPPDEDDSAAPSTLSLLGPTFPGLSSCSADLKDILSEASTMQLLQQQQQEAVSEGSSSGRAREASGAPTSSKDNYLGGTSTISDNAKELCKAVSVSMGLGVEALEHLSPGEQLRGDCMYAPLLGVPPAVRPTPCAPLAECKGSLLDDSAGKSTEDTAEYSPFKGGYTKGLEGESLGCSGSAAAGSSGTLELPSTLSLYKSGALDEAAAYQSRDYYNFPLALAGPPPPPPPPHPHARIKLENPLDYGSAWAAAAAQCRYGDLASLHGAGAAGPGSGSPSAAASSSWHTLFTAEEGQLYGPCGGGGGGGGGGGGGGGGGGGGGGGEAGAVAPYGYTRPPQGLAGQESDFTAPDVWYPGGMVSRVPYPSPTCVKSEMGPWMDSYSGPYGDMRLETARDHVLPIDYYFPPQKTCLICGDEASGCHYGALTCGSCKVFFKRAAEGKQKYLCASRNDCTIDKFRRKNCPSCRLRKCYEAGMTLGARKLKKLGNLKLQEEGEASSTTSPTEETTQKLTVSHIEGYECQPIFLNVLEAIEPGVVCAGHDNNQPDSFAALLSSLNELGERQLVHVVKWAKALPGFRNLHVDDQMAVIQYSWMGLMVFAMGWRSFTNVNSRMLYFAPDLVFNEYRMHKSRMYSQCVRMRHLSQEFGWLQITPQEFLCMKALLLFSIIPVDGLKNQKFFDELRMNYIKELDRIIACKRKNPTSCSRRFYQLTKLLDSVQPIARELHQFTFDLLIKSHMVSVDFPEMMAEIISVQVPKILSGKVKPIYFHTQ

Dopamine D1 = Dopamine D1 (Homo sapiens, UniProt P21728); experiment: Eurofins radioligand binding
Dopamine D1, sequence (P21728 whole entry): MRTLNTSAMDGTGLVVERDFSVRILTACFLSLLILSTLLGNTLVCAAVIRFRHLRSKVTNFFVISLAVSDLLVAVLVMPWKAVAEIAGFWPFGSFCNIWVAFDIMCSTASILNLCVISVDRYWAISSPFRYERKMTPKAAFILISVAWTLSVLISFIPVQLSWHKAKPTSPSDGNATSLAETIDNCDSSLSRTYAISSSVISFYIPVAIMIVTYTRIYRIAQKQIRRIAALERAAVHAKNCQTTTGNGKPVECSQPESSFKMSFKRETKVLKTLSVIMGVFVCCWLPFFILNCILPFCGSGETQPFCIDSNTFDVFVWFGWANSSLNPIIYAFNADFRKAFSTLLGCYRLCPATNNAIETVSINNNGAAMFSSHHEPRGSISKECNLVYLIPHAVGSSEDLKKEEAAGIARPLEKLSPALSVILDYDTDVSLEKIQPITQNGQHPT

Dopamine D2S = Dopamine D2S (Homo sapiens, UniProt P14416); experiment: Eurofins radioligand binding
Dopamine D4.2 = experiment: Eurofins radioligand binding; design: species or system Human
Estrogen ERα = Estrogen ERα (Homo sapiens, UniProt P03372); experiment: Eurofins radioligand binding
Estrogen ERα, sequence (P03372 whole entry): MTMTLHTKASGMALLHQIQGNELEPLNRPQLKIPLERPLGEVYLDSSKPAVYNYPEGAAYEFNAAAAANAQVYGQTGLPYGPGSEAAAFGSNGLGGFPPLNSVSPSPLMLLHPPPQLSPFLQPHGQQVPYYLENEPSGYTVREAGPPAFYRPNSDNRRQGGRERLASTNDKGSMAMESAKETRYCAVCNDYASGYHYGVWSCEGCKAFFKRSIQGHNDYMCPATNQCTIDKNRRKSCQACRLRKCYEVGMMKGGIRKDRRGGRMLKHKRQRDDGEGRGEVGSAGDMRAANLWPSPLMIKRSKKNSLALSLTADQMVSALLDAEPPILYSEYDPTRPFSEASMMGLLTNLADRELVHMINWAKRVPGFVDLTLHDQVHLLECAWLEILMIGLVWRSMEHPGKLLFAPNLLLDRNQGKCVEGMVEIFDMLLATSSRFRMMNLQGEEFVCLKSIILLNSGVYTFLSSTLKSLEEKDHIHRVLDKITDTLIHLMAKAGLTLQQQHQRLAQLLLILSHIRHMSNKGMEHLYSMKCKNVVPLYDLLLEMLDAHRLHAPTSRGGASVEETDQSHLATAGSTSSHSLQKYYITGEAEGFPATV

[5] = test system: GABAA, Flunitrazepam, Central; experiment: Eurofins radioligand binding; design: species or system Rat
Glutamate, Kainate = experiment: Eurofins radioligand binding; design: species or system Rat
[6] = test system: Glutamate, NMDA, Phencyclidine; experiment: Eurofins radioligand binding; design: species or system Rat
Imidazoline I2, Central = experiment: Eurofins radioligand binding; design: species or system Rat
Interleukin IL-1 R1 = Interleukin IL-1 R1 (Homo sapiens, UniProt P14778); experiment: Eurofins radioligand binding
Melatonin MT1 = Melatonin MT1 (Homo sapiens, UniProt P48039); experiment: Eurofins radioligand binding
Melatonin MT1, sequence (P48039 whole entry): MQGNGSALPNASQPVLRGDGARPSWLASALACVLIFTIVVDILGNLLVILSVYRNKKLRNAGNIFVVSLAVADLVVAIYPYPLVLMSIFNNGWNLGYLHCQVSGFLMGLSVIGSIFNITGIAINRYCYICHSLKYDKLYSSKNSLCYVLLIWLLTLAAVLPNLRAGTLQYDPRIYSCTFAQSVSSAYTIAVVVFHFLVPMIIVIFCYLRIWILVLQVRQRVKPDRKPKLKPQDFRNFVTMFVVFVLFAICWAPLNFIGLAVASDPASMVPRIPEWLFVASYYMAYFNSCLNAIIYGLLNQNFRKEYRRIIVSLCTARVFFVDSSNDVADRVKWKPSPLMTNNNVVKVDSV

Muscarinic M1 = Muscarinic M1 (Homo sapiens, UniProt P11229); experiment: Eurofins radioligand binding
Muscarinic M1, sequence (P11229 whole entry): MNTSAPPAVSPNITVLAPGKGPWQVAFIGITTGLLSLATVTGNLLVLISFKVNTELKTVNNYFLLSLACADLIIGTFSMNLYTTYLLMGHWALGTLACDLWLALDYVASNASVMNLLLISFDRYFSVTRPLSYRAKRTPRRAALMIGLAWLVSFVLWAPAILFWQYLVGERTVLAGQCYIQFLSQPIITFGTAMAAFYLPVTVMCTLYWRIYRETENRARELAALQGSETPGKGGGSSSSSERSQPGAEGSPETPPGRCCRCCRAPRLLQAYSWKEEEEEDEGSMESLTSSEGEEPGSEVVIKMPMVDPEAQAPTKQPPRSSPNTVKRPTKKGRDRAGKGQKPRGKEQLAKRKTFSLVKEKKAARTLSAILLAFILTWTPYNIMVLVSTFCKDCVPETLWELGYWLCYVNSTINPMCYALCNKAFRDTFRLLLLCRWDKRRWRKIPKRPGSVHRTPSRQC

Muscarinic M2 = Muscarinic M2 (Homo sapiens, UniProt P08172); experiment: Eurofins radioligand binding
Opiate δ1 (OP1, DOP) = Opiate δ1 (OP1, DOP) (Homo sapiens, UniProt P41143); experiment: Eurofins radioligand binding
hERG potassium channel = hERG potassium channel (Homo sapiens, UniProt Q12809); experiment: Eurofins radioligand binding
Prostanoid EP4 = Prostanoid EP4 (Homo sapiens, UniProt P35408); experiment: Eurofins radioligand binding
Prostanoid EP4, sequence (P35408 whole entry): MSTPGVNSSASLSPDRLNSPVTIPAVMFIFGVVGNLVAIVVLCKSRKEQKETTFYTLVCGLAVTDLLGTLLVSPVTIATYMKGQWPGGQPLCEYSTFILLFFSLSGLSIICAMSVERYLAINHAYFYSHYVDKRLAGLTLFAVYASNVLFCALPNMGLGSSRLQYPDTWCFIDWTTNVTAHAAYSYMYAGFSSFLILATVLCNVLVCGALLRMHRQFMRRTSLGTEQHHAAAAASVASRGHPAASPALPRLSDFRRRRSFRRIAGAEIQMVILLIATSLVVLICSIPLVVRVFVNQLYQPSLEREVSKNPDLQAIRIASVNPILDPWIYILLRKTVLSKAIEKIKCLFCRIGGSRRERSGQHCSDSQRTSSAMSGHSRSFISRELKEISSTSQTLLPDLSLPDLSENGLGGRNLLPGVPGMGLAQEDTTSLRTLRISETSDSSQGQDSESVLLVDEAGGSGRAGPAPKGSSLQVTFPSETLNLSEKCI

[7] = test system: Purinergic P2Y, Non-Selective; experiment: Eurofins radioligand binding; design: species or system Rat
Serotonin (5-HT3) = Serotonin (5-HT3) (Homo sapiens, UniProt P46098); experiment: Eurofins radioligand binding
Tachykinin NK1 = Tachykinin NK1 (Homo sapiens, UniProt P25103); experiment: Eurofins radioligand binding
Tachykinin NK1, sequence (P25103 whole entry): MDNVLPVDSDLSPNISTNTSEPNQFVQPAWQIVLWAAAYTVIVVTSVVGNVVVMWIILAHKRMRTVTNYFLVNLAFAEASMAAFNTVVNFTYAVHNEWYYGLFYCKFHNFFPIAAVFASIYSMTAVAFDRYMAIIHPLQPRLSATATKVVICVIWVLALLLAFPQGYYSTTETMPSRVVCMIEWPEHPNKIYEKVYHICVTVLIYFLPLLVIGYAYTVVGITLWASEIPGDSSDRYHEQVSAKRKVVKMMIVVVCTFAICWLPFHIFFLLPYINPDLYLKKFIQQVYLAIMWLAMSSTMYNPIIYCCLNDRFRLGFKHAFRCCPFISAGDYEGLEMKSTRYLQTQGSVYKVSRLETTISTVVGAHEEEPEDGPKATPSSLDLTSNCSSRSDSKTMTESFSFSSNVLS

Thyroid Hormone = experiment: Eurofins radioligand binding; design: species or system Rat
[8] = molecular target: Transporter, Serotonin (SERT) (Homo sapiens, UniProt P31645); experiment: Eurofins radioligand binding
Transporter, Serotonin (SERT), sequence (P31645 whole entry): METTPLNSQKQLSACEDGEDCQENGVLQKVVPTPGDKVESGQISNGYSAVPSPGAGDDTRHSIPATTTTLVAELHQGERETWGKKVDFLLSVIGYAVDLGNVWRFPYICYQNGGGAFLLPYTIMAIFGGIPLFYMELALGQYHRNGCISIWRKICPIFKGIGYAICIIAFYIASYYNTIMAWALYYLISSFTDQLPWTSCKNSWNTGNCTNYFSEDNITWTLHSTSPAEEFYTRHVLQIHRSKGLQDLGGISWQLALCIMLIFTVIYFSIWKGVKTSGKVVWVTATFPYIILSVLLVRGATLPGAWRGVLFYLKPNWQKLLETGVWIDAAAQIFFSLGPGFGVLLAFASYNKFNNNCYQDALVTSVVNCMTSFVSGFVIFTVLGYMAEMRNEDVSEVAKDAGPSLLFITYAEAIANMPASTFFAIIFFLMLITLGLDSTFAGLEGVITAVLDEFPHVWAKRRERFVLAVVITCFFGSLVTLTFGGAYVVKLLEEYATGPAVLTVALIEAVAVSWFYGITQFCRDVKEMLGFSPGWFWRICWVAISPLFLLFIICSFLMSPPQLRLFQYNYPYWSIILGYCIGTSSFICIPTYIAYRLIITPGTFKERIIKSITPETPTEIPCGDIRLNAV

Q: Which “rat CLhep” value [1] does the source give for Cn1cc2c(-c3cc(F)c(CN4Cc5ncccc5C4=O)c(F)c3)cccc2n1 [compound 1] here?
A: 5.7 mL/min/kg

Q: And the “CYP isoform responsible for metabolism” value (CYP 3A4)?
A: solely metabolized by CYP 3A4

Q: Which “bacterial mutagenicity mini-AMES result” value [2] does the source give for [2H]C1([2H])c2ncccc2C(=O)N1Cc1c(F)cc(-c2cccc3nn(C([2H])([2H])[2H])cc23)cc1F [compound 5] here?
A: negative

Q: And the “conjugation in GSH trapping studies” value [3]?
A: < 0.1%

Q: What about the “contribution of CYP 2D6 to metabolism” value (CYP 2D6) of the same molecule?
A: 1.6%

Q: And the AUC(0-t) ([4]; 3 mg/kg)?
A: 8390 ng·h/mL

Q: What about the Cmax ([4]; 3 mg/kg) of the same molecule?
A: 1250 ng/mL

Q: And the AUC(0-t) ([4]; 10 mg/kg)?
A: 23900 ng·h/mL

Q: And the Cmax ([4]; 10 mg/kg)?
A: 3380 ng/mL

Q: What about the AUC(0-t) ([4]; 30 mg/kg) of the same molecule?
A: 55600 ng·h/mL

Q: What about the Cmax ([4]; 30 mg/kg) of the same molecule?
A: 6020 ng/mL

Q: And the AUC(0-t) ([4]; 100 mg/kg)?
A: 87800 ng·h/mL

Q: And the Cmax ([4]; 100 mg/kg)?
A: 7850 ng/mL

Q: What about the “cholinergic signs or adverse events” value ([4]; rat oral dose escalation 3-100 mg/kg) of the same molecule?
A: no cholinergic signs or adverse events were noted

Q: What about the inhibition at 10 µM (Adrenergic β2) of the same molecule?
A: -1%

Q: What about the inhibition at 10 µM (Androgen (Testosterone)) of the same molecule?
A: 0%

Q: What about the inhibition at 10 µM (Dopamine D1) of the same molecule?
A: -3%

Q: What about the inhibition at 10 µM (Dopamine D2S) of the same molecule?
A: 2%

Q: And the “% Inhibition at 10 µM” value (Dopamine D4.2)?
A: 13%

Q: What about the inhibition at 10 µM (Estrogen ERα) of the same molecule?
A: 10%

Q: And the “% Inhibition at 10 µM” value [5]?
A: 0%

Q: And the “% Inhibition at 10 µM” value (Glutamate, Kainate)?
A: 13%

Q: And the “% Inhibition at 10 µM” value [6]?
A: -1%

Q: And the “% Inhibition at 10 µM” value (Imidazoline I2, Central)?
A: 59%

Q: What about the inhibition at 10 µM (Interleukin IL-1 R1) of the same molecule?
A: 8%

Q: What about the inhibition at 10 µM (Melatonin MT1) of the same molecule?
A: 5%

Q: And the inhibition at 10 µM (Muscarinic M1)?
A: 0%

Q: What about the inhibition at 10 µM (Muscarinic M2) of the same molecule?
A: 5%

Q: What about the inhibition at 10 µM (Opiate δ1 (OP1, DOP)) of the same molecule?
A: 1%

Q: What about the inhibition at 10 µM (hERG potassium channel) of the same molecule?
A: 9%

Q: And the inhibition at 10 µM (Prostanoid EP4)?
A: -3%

Q: And the “% Inhibition at 10 µM” value [7]?
A: 9%

Q: What about the inhibition at 10 µM (Serotonin (5-HT3)) of the same molecule?
A: -9%

Q: And the inhibition at 10 µM (Tachykinin NK1)?
A: 4%

Q: What about the “% Inhibition at 10 µM” value (Thyroid Hormone) of the same molecule?
A: 0%

Q: What about the inhibition at 10 µM [8] of the same molecule?
A: -4%
